Test results as given in US8106168B2, “Metalloproteinase binding proteins” (Dyax Corp., priority 2005, dated 2012).

Tests used:
[1] = tested on: activation of pro-MMP-2 by MMP-14 in PMA-activated HT-1080 cells; assay: Gelatin zymogram, pro-MMP-2 activation in HT-1080 cells; assay type: cell-based, human; conditions: gelatin zymography of conditioned media after 3 days; antibodies 10 μg/ml, GM6001 10 μM
Experimental: The ability of anti-MMP-14 IgGs to inhibit the activation of pro-MMP-2 by MMP-14 was examined by gelatin zymogram experiments performed with PMA-activated HT-1080 cells. M0033-H07 and M0038-F01 were tested for their ability to inhibit MMP-14 in this assay. HT1080 cells (well-known to express MMP-14 and MMP-2) were seeded at 5×10^5 cells/well at Day 0. […] HT-1080 cells cultured in the presence of 20 ng/ml of PMA were used as a positive control.
After 3 days of incubation, conditioned media were collected and gelatinolytic activities were analyzed by gelatin zymography as described previously (Maquoi et al, J Biol Chem 2000; 275:11368-78). When HT-1080 cells are activated with a phorbol ester, pro-MMP-2 is activated into MMP-2 (lane 1).

MDA-MB-435 GFP tumors = assay: MDA-MB-435 GFP orthotopic breast tumor growth; assay type: in vivo, mouse
Description: Fragments of MDA-MB-435 GFP (MDA-MB-435 cells expressing green fluorescent protein) tumors were transplanted by surgical orthotopic implantation (SOI) into the right second mammary gland. Treatment was started on day 15 after SOI when the volume of primary tumors reached about 85 mm^3.
Mice were sacrificed at day 61 after the start of the treatment and tumors (primary and metastases) were identified by fluorescent imaging. Additionally, primary tumors were excised and weighed. […] However, M0038-F01 was not effective in reducing lymph node or lung metastases in this experiment.

PC3 prostate tumors = assay: PC3 prostate tumor growth; assay type: in vivo, mouse; conditions: M0038-F01 10, 1 or 0.1 mg/kg Q2d IP; taxotere 10 mg/kg weekly IP; A2 10 mg/kg Q2d
Description: PC3 prostate cancer cells were implanted into male nude mice by subcutaneous injection.

B16F1 melanoma tumors = assay: B16F1 melanoma subcutaneous tumor growth; assay type: in vivo, mouse; conditions: M0038-F01 10, 1 or 0.1 mg/kg Q2d IP; doxorubicin 5 mg/kg weekly IP
Description: B16F1 melanoma cells were implanted into Female C57/BL6 (CR) mice (4-6 Weeks old) mice by subcutaneous injection.

MDA-MB-231-GFP tumors = assay: MDA-MB-231-GFP orthotopic breast tumor growth and metastasis
Experimental: Human breast cancer cells MDA-MB-231 cells transfected with green fluorescent protein (MDA-MB-231-GFP) were inoculated into the mammary fat pad of female BALB/c nu/nu mice with Matrigel. Animals were monitored for tumor growth, and at week 4-5 post tumor cell inoculation, animals with tumors of 30-50 mm^3 were selected, randomized and divided into experimental groups. […] Tumor volume was measured weekly, starting at week 5. Additionally, tissue samples of lung, liver, and spleen were taken to assess metastasis.
Animals were inoculated with MDA-MB-231-GFP cells as described above, then selected and randomized, and divided into experimental groups of 8 animals each. […] Tumor volume was measured weekly, starting at week 5.
Tumor tissue samples were collected on day 35 post-treatment for immunohistochemical analysis. Paraffin-embedded tissue samples were sectioned, stained with CD31 (Santa Cruz Biotechnology Inc., Santa Cruz, Calif., USA), Ki-67 (DAKO, Carpinteria, Calif., USA), MAPK, FAK, phosphoMAPK or phosphoFAK antibodies, visualized with biotinylated secondary antibodies using a VECTASTAIN® ABC (Vector Laboratories Inc., Burlingame, Calif., USA), and lightly counterstained with haemotoxylin.

[2] = immunostaining of tumor tissue, day 35
[3] = immunostaining of tumor tissue, day 35 post-treatment, image analysis

Question: CNC(=O)[C@H](Cc1c[nH]c2ccccc12)NC(=O)[C@@H](CC(=O)NO)CC(C)C [GM6001, reference compound] was tested. Which “pro-MMP-2 activation by MMP-14” value [1] did it give?
Answer: Its value is “completely abolished”.

Question: What about the pro-MMP-9 expression [1] of the same compound?
Answer: Its pro-MMP-9 expression is “paradoxically stimulated”.

Question: With CC(=O)O[C@@]12CO[C@@H]1C[C@H](O)[C@@]1(C)C(=O)[C@H](O)C3=C(C)[C@@H](OC(=O)[C@H](O)[C@@H](NC(=O)OC(C)(C)C)c4ccccc4)C[C@@](O)([C@@H](OC(=O)c4ccccc4)[C@H]21)C3(C)C [Taxotere, taxotere, reference compound] as the compound, how does the “Tumor Mass (±SD)” value (MDA-MB-435 GFP tumors; 10 mg/kg (F01 and A2 Q2d IP; taxotere QW×3 i.v.), excised primary tumor, day 61, * p≦0.05 compared to Control) read?
Answer: The value was 0.59 ± 0.59*.

Question: And the tumor volume (MDA-MB-435 GFP tumors; M0038-F01 1 or 10 mg/kg Q2d IP, taxotere 10 mg/kg QW×3 i.v.)?
Answer: The tumor volume was “reduction of tumor volume”.

Question: What about the “tumor growth (tumor volume)” value (PC3 prostate tumors) of the same compound?
Answer: Its value is “extremely effective”.

Question: COc1cccc2c1C(=O)c1c(O)c3c(c(O)c1C2=O)C[C@@](O)(C(=O)CO)C[C@@H]3O[C@H]1C[C@H](N)[C@H](O)[C@H](C)O1 [DOX, doxorubicin] was tested. Which tumor growth (B16F1 melanoma tumors) did it give?
Answer: The tumor growth was “effective in reducing tumor growth”.

Question: And the metastases to spleen (MDA-MB-231-GFP tumors; M0038-F01 10 mg/kg Q2d IP, DOX 5 mg/kg weekly IP)?
Answer: Its metastases to spleen is “reduced in DOX and M0038-F01 treated animals, but the difference was not statistically significant”.

Question: What about the “lung and liver metastases” value (MDA-MB-231-GFP tumors; M0038-F01 10 mg/kg Q2d IP, DOX 5 mg/kg weekly IP, compared to controls) of the same compound?
Answer: The value was “statistically significant reduction”.

Question: What about the “tumor growth (tumor volume)” value (MDA-MB-231-GFP tumors; M0038-F01 or A2 10 mg/kg Q2d IP, DOX 5 mg/kg weekly IP, five weeks) of the same compound?
Answer: Its value is “substantially inhibited”.

Question: What about the “CD31 and KI67 levels compared to vehicle and A2 controls” value (MDA-MB-231-GFP tumors; [2]) of the same compound?
Answer: Its value is “slightly reduced”.

Question: What about the phospho-FAK level (MDA-MB-231-GFP tumors; [2]) of the same compound?
Answer: Its phospho-FAK level is 4±1.2 A.U.

Question: And the phospho-MAP kinase level (MDA-MB-231-GFP tumors; [2])?
Answer: Its phospho-MAP kinase level is 5.8±1.9 A.U.

Question: And the “total FAK level” value (MDA-MB-231-GFP tumors; [2])?
Answer: Its value is 6±1 A.U.

Question: What about the “total MAP kinase level” value (MDA-MB-231-GFP tumors; [2]) of the same compound?
Answer: The value was 5.8±1.9 A.U.

Question: And the CD31 (MDA-MB-231-GFP tumors; [3])?
Answer: Its CD31 is 4.08 ± 1.28.

Question: What about the Ki67 (MDA-MB-231-GFP tumors; [3]) of the same compound?
Answer: The Ki67 was 5.2 ± 0.84.
